The text below walks through data of patent US20250302815A1, “PROTEIN TYROSINE PHOSPHATASE TARGETING LIGANDS” (CALICO LIFE SCIENCES LLC, priority 2021, published 2025).

For data set [1], the system named is MC-38 murine colon adenocarcinoma tumors. Description: In vivo efficacy in MC38 syngeneic tumor model. Conditions: MC-38 tumor-bearing mice. How it is done:
All experiments were conducted in compliance with AbbVie's Institutional Animal Care and Use Committee and the National Institutes of Health Guide for Care and Use of Laboratory Animals guidelines in a facility accredited by the Association for the Assessment and Accreditation of Laboratory Animal Care. C57Bl/6 female mice were obtained from Charles River (Wilmington, MA). The mice were group-housed 10 per cage. Food and water were available ad libitum. Animals were acclimated to the animal facilities for a period of at least one week prior to commencement of experiments. Animals were tested in the light phase of a 12-hour light: 12-hour dark schedule (lights on 0600 hours).
Cells were grown to passage 3 in vitro. A total of 1×10^5 viable MC-38 cells were inoculated subcutaneously into the right flank of female C57Bl/6 mice (7-12 weeks old) on Day 0. The injection volume was 0.1 mL and was composed of a 1:1 mixture of S-MEM and Matrigel® (Corning, NY, USA). […] The mean tumor volume (TV) at size match was approximately 139±45 mm^3. Following size match, treatments were initiated on the same day. Dosing of mice with Compound 187b (Example 187b) was conducted intravenously, weekly (QW) for 3 weeks. Mice were dosed (10 mg/kg/dose) with either Compound 187b or vehicle controls (n=10 mice/group). Compound 187b was formulated in 5% DMSO+10% PEG400+85% (35% HP-β-CD in water) and was dosed at 5 mL/kg. Anti-PD-1 and isotype antibodies were dosed at 5 mg/kg, […] at 4 day intervals (Q4Dx3). Antibodies were formulated in PBS and dosed at 10 mL/kg. Tumor volume was calculated three times weekly. Measurements of the length (L) and width (W) of the tumor were taken via electronic caliper and the volume was calculated according to the following equation: V=L×W^2/2 using Study Director Version 3.1.399.22 (Study log Systems, Inc, CA, USA). Mice were euthanized when tumor volume was […] or skin ulcerations occurred.

Data set [2] deals with T1, PTPN2 (B16F10.4 cells) (Mus musculus, UniProt Q06180).
T1 construct: HiBiT; host or cells: B16F10.4
T1 sequence (Q06180 1-406): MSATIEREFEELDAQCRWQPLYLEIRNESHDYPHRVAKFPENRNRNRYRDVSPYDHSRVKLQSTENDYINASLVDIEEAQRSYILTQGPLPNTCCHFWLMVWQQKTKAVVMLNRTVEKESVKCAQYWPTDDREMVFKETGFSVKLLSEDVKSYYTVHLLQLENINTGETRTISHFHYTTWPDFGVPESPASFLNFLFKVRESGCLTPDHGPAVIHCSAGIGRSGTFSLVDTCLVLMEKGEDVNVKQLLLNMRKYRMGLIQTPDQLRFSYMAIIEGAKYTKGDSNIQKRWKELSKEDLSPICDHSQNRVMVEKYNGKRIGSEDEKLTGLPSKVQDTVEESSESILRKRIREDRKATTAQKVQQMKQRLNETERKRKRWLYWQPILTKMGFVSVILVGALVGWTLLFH
Description: HiBiT Degradation B16F10.4 PTPN2. In kind it is cell-based. The conditions noted are these: 24.0 hours.

Data set [3] deals with MC-38 tumor. Description: syngeneic mouse tumor model, MC-38 tumor growth inhibition. The format is in vivo. The conditions noted are these: MC-38 tumor-bearing mice, mean tumor volume of 10 mice. The source says: Each point on the curve represents the mean of 10 tumor volume of 10 mice. Error bars depict the standard error of the mean. **=p<0.01.
For data set [4], the target named is T2, PTPN2 (HiBIT-PTPN2 in 293T.109 cells) (Homo sapiens, UniProt P17706).
T2 construct: expressed in transfected cells; host or cells: 293T.109 (293T WT from ATCC)
T2 sequence (P17706 1-415): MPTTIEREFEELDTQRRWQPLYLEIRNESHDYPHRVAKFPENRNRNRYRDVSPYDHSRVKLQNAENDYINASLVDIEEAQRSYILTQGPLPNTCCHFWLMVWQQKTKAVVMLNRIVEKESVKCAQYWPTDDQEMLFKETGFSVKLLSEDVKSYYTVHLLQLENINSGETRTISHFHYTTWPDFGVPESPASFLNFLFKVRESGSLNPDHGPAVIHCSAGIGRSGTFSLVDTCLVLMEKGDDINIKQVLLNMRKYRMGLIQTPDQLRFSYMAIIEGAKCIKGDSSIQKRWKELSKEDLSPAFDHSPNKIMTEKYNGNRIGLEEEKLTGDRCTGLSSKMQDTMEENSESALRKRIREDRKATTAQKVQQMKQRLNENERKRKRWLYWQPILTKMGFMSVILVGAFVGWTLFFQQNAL
Description: HiBiT Degradation 293T.109 PTPN2 (Nano-Glo HiBiT Lytic Assay). In kind it is cell-based. The conditions noted are these: 24.0 hours. A digest of the protocol:
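293T.109 cells with ectopic N-terminal HiBiT-tagged PTPN2 (5000/well) exposed to compounds for 24 h at 37 °C, 5% CO2; 11-point half-log titration from 10 μM top, duplicates. Remaining HiBiT-PTPN2 read as luminescence with Nano-Glo HiBiT lytic reagent, normalised to untreated cells (0%) and reagent-free wells.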

[5] abbreviates: combination of anti-PD-1 antibody (5 mg/kg) with Compound 187b (10 mg/kg i.v. QWx3).
[6] abbreviates: monotherapy, Compound 187b 10 mg/kg intravenously QW for 3 weeks, anti-PD-1 5 mg/kg intraperitoneal every 4 days.

Turning to `CC1(C)C[C@@H](Nc2cccc(-c3sc(C(=O)O)c(OCC(=O)O)c3Cl)c2)CCN1S(=O)(=O)Cc1cccc(NC(=O)N2CCC(c3ccc4c5c(cccc35)C(=O)N4[C@H]3CCC(=O)NC3=O)CC2)c1` (single isomer, unassigned) [Example 187b], in data set [1] (10 mg/kg intravenously QW for 3 weeks), the tolerability result is given as “well tolerated”. Further, the “TGIMax (maximal tumor growth inhibition)” value in data set [1] (setting [5]) came to 98%; in data set [1] (setting [6]), 75%. The mice achieving cures in data set [1] (setting [5]) came to 90%. Besides, the “mice achieving complete cures” value in data set [1] (setting [6]) was 10%. In data set [1] (within 7-10 days of monotherapy treatment), the tumor response result was “apparent tumor stasis and shrinkage”. The DC50 in data set [2] and in data set [4] was less than 50 nM throughout. Moreover, the “anticancer and tumor growth inhibition activity in vivo” value was “tumor growth inhibition” in data set [3] (in combination with anti-PD-1 therapy (Q4Dx2)) and “tumor growth inhibition” in data set [3] (monotherapy, QWx3).
